From article PMC6036575, “Reincarnation of Bacteriocins From the Lactobacillus Pangenomic Graveyard” (Frontiers in Microbiology, 2018) come the findings set out here.

For one test, the system named is 32 indicator strains. The experiment in a line: Well diffusion assays against the panel of 32 indicator strains. The class given is cell-based. Conditions: for Total no. of strains inhibited: of 32 indicator strains, supernatant of E. coli transformants encoding the pediocin leader. Here is the method: (§1) Bacteriocin activity was determined using well diffusion assays (WDAs). For Tuner^TM (DE3) E. coli transformants both the cell supernatant and the cell lysates were analyzed for antimicrobial activity, whilst only the supernatants were analyzed for L. paracasei NFBC338 cells. Supernatant was isolated by centrifugation of the liquid cultures at 4000 RCF for 15 min, these supernatants were then filtered using 0.20 μm membrane filters. For cell lysates, cell pellets were resuspended in 5 ml of phosphate-buffered saline (PBS), cells were lysed by sonication using a MSE Soniprep 150 (MSE, London, UK). Lysates were subsequently centrifuged at 4000 RCF for 15 min and the resulting supernatants were filtered using 0.20 μm membrane filters. For the indicator plates, 50 μl of an overnight culture of the indicator strain was added to the appropriate media containing 1% agar. Plates were cooled and 7 mm wells were bored in the agar. 50 μl of the cell supernatants/lysates being tested were added to each well and plates were refrigerated for 2 h prior to incubation under the appropriate conditions. WDAs were carried out in triplicate for each bacteriocin.
(§2) E. coli Tuner^TM (DE3) cells transformed with the newly constructed plasmids were grown in LB supplemented with glucose to maintain a low-copy number and bacteriocin expression was induced by co-incubation of the clones with 50 μM IPTG for 3 h. WDAs were used to identify bacteriocin activity from the bacterial supernatants and cell lysates. Bacteriocins were exclusively found in the bacterial supernatant. Antimicrobial activity was lower in cases where the native leader of the bacteriocin sequence was used; with only four of the nine strains displaying zones of inhibition against a sensitive indicator (pediocin 20336a has an identical leader to pediocin PA-1). For expression in L. paracasei NFBC338, cells were transformed by electroporation with the bacteriocin-containing pNZ44 vectors. Positive transformants were grown overnight and the neutralized cell free supernatant was used to identify bacteriocin production in WDAs.
(§3) The spectrum of activity was determined using WDAs against 32 indicator strains for bacteriocins produced by the E. coli transformants encoding the pediocin leader (Table 2). Despite being of the same class of bacteriocins, these novel antimicrobials display a varying spectrum of activity. […] Many of these bacteriocins, however, can inhibit a wide range of Gram positive bacteria including potential pathogens such as Enterococcus faecalis. As with most class IIa bacteriocins, these also display potent anti-listerial activity.
(In general: In agar diffusion tests the substance spreads into inoculated agar from a disc or well.)

For the next test, the system named is L. crustorum JCM 15951. The experiment in a line: Well diffusion assay, spectrum of bacteriocin activity. The class given is cell-based. Conditions: 50 μl filtered supernatant of E. coli Tuner (DE3) transformants encoding the pediocin PA-1 leader, 7 mm wells, triplicate. Here is the method: as §1, §2, §3
The next test deals with L. plantarum DSM 13273. Described as above. It counts as cell-based. Conditions: 50 μl filtered supernatant of E. coli Tuner (DE3) transformants encoding the pediocin PA-1 leader, 7 mm wells, triplicate. Here is the method: as §1, §2, §3
The test system of test [1] is Li. monocytogenes DPC 6893. The description is as above. The class given is cell-based. Conditions: 50 μl filtered supernatant of E. coli Tuner (DE3) transformants encoding the pediocin PA-1 leader, 7 mm wells, triplicate. The method, then: as §1, §2, §3
Another test has as its system P. clausenii DSM 14800. The test is described as above. It counts as cell-based. Conditions: 50 μl filtered supernatant of E. coli Tuner (DE3) transformants encoding the pediocin PA-1 leader, 7 mm wells, triplicate. Here is the method: as §1, §2, §3
Test [2] concerns Enterococcus faecalis LMG 7397. The test is described as above. It counts as cell-based. Conditions: 50 μl filtered supernatant of E. coli Tuner (DE3) transformants encoding the pediocin PA-1 leader, 7 mm wells, 1% agar, triplicate. The method, then: as §1, §2, §3
Another test deals with L. mali DSM 20444. Described as above. The class given is cell-based. Conditions: 50 μl filtered supernatant of E. coli Tuner (DE3) transformants encoding the pediocin PA-1 leader, 7 mm wells, triplicate. Here is the method: as §1, §2, §3
The subject of another test is L. apodemi DSM 16654. Described as above. The class given is cell-based. Conditions: 50 μl filtered supernatant of E. coli Tuner (DE3) transformants encoding the pediocin PA-1 leader, 7 mm wells, triplicate. The method, then:
as §1, §2, §3

The next test has as its system L. kimchicus JCM 15530. The test is described as above. The class given is cell-based. Conditions: 50 μl filtered supernatant of E. coli Tuner (DE3) transformants encoding the pediocin PA-1 leader, 7 mm wells, triplicate. The method, then:
as §1, §2, §3

Test [3] has as its system Pediococcus stilesii DSM 18001. Described as above. Conditions: 50 μl filtered supernatant of E. coli Tuner (DE3) transformants encoding the pediocin PA-1 leader, 7 mm wells, triplicate. It counts as cell-based. The method, then: as §1, §2, §3
In test [4] the test system is L. paralimentarius DSM 13961. The description is as above. Conditions: 50 μl filtered supernatant of E. coli Tuner (DE3) transformants encoding the pediocin PA-1 leader, 7 mm wells, triplicate. It counts as cell-based. Here is the method: as §1, §2, §3
The subject of a further test is L. nodensis DSM 16982. The test is described as above. Conditions: 50 μl filtered supernatant of E. coli Tuner (DE3) transformants encoding the pediocin PA-1 leader, 7 mm wells, triplicate. The class given is cell-based. Here is the method:
as §1, §2, §3

The test system of the next test is E.mundtii LMG 10748. The test is described as above. It counts as cell-based. Conditions: 50 μl filtered supernatant of E. coli Tuner (DE3) transformants encoding the pediocin PA-1 leader, 7 mm wells, triplicate. Here is the method: as §1, §2, §3
In test [5] the test system is P. ethanolidurans DSM 22301. The description is as above. The class given is cell-based. Conditions: 50 μl filtered supernatant of E. coli Tuner (DE3) transformants encoding the pediocin PA-1 leader, 7 mm wells, triplicate. The method, then:
as §1, §2, §3

Test [6] concerns Li. monocytogenes DPC 6894. The description is as above. The class given is cell-based. Conditions: 50 μl filtered supernatant of E. coli Tuner (DE3) transformants encoding the pediocin PA-1 leader, 7 mm wells, triplicate. The method, then: as §1, §2, §3
Test [7] concerns E. saccharolyticus DPC 4902. Described as above. The class given is cell-based. Conditions: 50 μl filtered supernatant of E. coli Tuner (DE3) transformants encoding the pediocin PA-1 leader, 7 mm wells, triplicate. Here is the method: as §1, §2, §3
The subject of test [8] is Li. monocytogenes WSL 1416. Described as above. The class given is cell-based. Conditions: 50 μl filtered supernatant of E. coli Tuner (DE3) transformants encoding the pediocin PA-1 leader, 7 mm wells, triplicate. Here is the method:
as §1, §2, §3

Test [9] deals with Listeria innocua DPC 3572. The description is as above. The class given is cell-based. Conditions: 50 μl filtered supernatant of E. coli Tuner (DE3) transformants encoding the pediocin PA-1 leader, 7 mm wells, triplicate. The method, then: as §1, §2, §3
The next test relates to L. amylophilus DSM 20509. Described as above. It counts as cell-based. Conditions: 50 μl filtered supernatant of E. coli Tuner (DE3) transformants encoding the pediocin PA-1 leader, 7 mm wells, triplicate. Here is the method:
as §1, §2, §3

A further test concerns L. innocua DPC3572. Briefly: Bacteriocin activity (BU/ml), dilution series in well diffusion assay. It counts as cell-based, Listeria innocua. Conditions: inverse of the highest dilution of bacterial supernatant showing activity in a well diffusion assay. Here is the method: as §1, §2
The mark [10] stands for this setting: produced by E. coli Tuner (DE3).
Setting [11] is: produced by L. paracasei NFBC338, neutralized cell free supernatant.

No end group written: not given here.

Regarding “–KYYGNGLYCG-KHSCSVDWGKATTCIINNGAMAWATGGHQGTHKC—— (bicyclic or more) [Pediocin 20336a (Ped20336), novel pediocin-like class IIa bacteriocin encoded by P. pentosaceus DSM 20336, heterologously expressed]”, in the test on 32 indicator strains (crude supernatant from the E. coli heterologous host, pediocin PA-1 leader), the “antimicrobial activity / spectrum, in words” value was “inhibited the growth of a larger number of the indicators tested than pediocin PA-1”. Further, in the test with 32 indicator strains, the “Total no. of strains inhibited” value is on record as 18. The “radius of the zone of inhibition” value is reported as 1 ± 0 millimeters in the test on L. crustorum JCM 15951; 1.33 ± 0.47 millimeters with L. plantarum DSM 13273; 2.67 ± 0.47 millimeters in test [1]; 0.67 ± 0.47 millimeters in the test on P. clausenii DSM 14800; 4 ± 0 millimeters in test [2]; 6.33 ± 0.47 millimeters in the test on L. mali DSM 20444. Moreover, the “radius of the zone of inhibition” value in the test on L. apodemi DSM 16654 was 3.67 ± 0.47 millimeters; in the test on L. kimchicus JCM 15530 it was 0.33 ± 0.47 millimeters; in test [3] it was 1 ± 0 millimeters; in test [4], 1 ± 0.47 millimeters; with L. nodensis DSM 16982, 1.67 ± 0.47 millimeters; in the test with E.mundtii LMG 10748, 4.67 ± 0.47 millimeters. Moreover, the “radius of the zone of inhibition” value worked out at 5.67 ± 0.47 millimeters in test [5]; 4.33 ± 0.47 millimeters in test [6]; 5.67 ± 0.47 millimeters in test [7]; 3.33 ± 0.94 millimeters in test [8]; 7.33 ± 0.47 millimeters in [9]; 0.33 ± 0.47 millimeters in the test on L. amylophilus DSM 20509. Besides, the “Bacteriocin Activity (BU/ml) vs. L. innocua DPC3572” value with L. innocua DPC3572 (setting [10]) and in the test with L. innocua DPC3572 (setting [11]) was “+ (+ = 0 – 160 BU/ml)” each time.

In the case of “–KYYGNGVTCG-KHSCSVDWGKATTCIINNGAMAWATGGHQGNHKC—– (bicyclic or more) (KYYGNGVTCGKHSCSVDWGKATTCIINNGAMAWATGGHQGNHKC; not fully specified (bridges); cysteine pairing not given here; UniProt P29430 19-62, looked up) [Pediocin PA-1 (PedA), original class IIa bacteriocin of P. acidilactici LMG 2351, used as a control; heterologously expressed, reference compound]”, the “Total no. of strains inhibited” value in the test on 32 indicator strains was 14. For the same substance, the “radius of the zone of inhibition” value in the test on L. crustorum JCM 15951 came to 0.33 ± 0.47 millimeters; with L. plantarum DSM 13273, 0.33 ± 0.47 millimeters; in [1] it was 3 ± 0 millimeters; in test [2], 4.33 ± 0.47 millimeters; in the test on L. mali DSM 20444 it was 7.67 ± 0.47 millimeters; in the test with L. apodemi DSM 16654 it was 3.33 ± 0.47 millimeters. The “radius of the zone of inhibition” value in [3] is 1 ± 0 millimeters; in test [4] it was 0.67 ± 0.47 millimeters; with E.mundtii LMG 10748, 5 ± 0 millimeters; in test [5] it was 5.67 ± 0.47 millimeters; in [6], 5 ± 0 millimeters; in test [7], 6 ± 0 millimeters. In addition, the “radius of the zone of inhibition” value worked out at 3.33 ± 0.94 millimeters in test [8] and 8 ± 0 millimeters in [9]. Besides, the “Bacteriocin Activity (BU/ml) vs. L. innocua DPC3572” value in the test on L. innocua DPC3572 (setting [10]) was “+ (+ = 0 – 160 BU/ml)”; with L. innocua DPC3572 (setting [11]), “++ (++ = 320 – 2560 BU/ml)”.
